Results taken from patent publication US11180479B2 (HAPLOGEN GmbH, priority 2017, dated 2021).

Tests used:
[1] = tested on: picornaviruses (CVB1, HRV-A2, HRV-A23, EV-68); experiment: Anti-picornavirus cytopathic effect (CPE) reduction assay on HeLa H1 cells; type: cell-based; settings: 48 h, category from averaging EC50 values of four picornaviruses (CVB1, HRV-A2, HRV-A23, EV68), second symbol in parentheses
Summary of the method: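 HeLa H1 cells pre-treated 2 h with serial compound dilutions in 2% FBS DMEM, then infected at an MOI giving full CPE in 2 days; after 48 h, viability by CellTiterBlue fluorescence (560/590 nm) normalised to infected and uninfected vehicle controls; EC50 by non-linear regression, averaged over the four viruses.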

PLA2G16 = biological target: T1, PLA2G16 (Homo sapiens, UniProt P53816); experiment: Enzyme activity assay for PLA2G16 (Red/Green BODIPY PC-A2 fluorescence); type: biochemical; settings: His-tagged PLA2G16, 4 min pre-incubation, compound 2 nM to 50 μM; first symbol in parentheses
T1 construct: Hexa-His (N); made in house; host or cells: E. coli BL21(DE3)
T1 sequence (P53816 1-162): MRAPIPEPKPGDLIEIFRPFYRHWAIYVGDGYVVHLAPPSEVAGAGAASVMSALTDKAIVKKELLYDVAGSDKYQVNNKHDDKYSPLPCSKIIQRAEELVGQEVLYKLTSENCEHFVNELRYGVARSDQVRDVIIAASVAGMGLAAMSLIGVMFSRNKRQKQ
Summary of the method: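 N-His human PLA2G16 was expressed in E. coli and Ni-NTA purified. Enzyme in 5 mM glutathione was preincubated 4 min with compound (2 nM–50 μM final), then Red/Green BODIPY PC-A2 in DOPC/DOPG/cholesterol vesicles was added (50 mM Tris pH 8.5, 100 mM NaCl). Fluorescence increase (ex 480/em 530 nm) over 10 min gave activity; IC50 came from nonlinear regression.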

EC50 [1] [µM]	IC50 (PLA2G16) [µM]	Structure (SMILES)
1 to 10	< 1	Cc1ncncc1N1C[C@H](C(=O)C(=O)NC2CC2)[C@@H](Cc2ccccc2)C1=O (racemic) [FP-67, Rac-2-[(3R,4R)-4-benzyl-1-(4-methylpyrimidin-5-yl)-5-oxopyrrolidin-3-yl]-N-cyclopropyl-2-oxoacetamide]
< 1	< 1	O=C(NC1CC1)C(=O)[C@H]1CN(c2cnccn2)C(=O)[C@@H]1Cc1ccccc1 (racemic) [FP-57, Rac-2-[(3R,4R)-4-benzyl-5-oxo-1-(pyrazin-2-yl)pyrrolidin-3-yl]-N-cyclopropyl-2-oxoacetamide]
1 to 10	< 1	Cn1ncnc1CN1C[C@H](C(=O)C(=O)NCC(C)(F)F)[C@@H](Cc2ccc(F)cc2)C1=O (racemic) [FP-53, Rac-N-(2,2-difluoropropyl)-2-[(3R,4R)-4-[(4-fluorophenyl)methyl]-1-[(1-methyl-1H-1,2,4-triazol-5-yl)methyl]-5-oxopyrrolidin-3-yl]-2-oxoacetamide]
1 to 10	< 1	O=C(NC1CC1)C(=O)[C@H]1CN(c2ccncn2)C(=O)[C@@H]1Cc1ccccc1 (racemic) [FP-61, Rac-2-[(3R,4R)-4-benzyl-5-oxo-1-(pyrimidin-4-yl)pyrrolidin-3-yl]-N-cyclopropyl-2-oxoacetamide]
1 to 10	< 1	Cc1ncncc1N1C[C@H](C(=O)C(=O)NCC(C)(F)F)[C@@H](Cc2ccccc2)C1=O (racemic) [FP-68, Rac-2-[(3R,4R)-4-benzyl-1-(4-methylpyrimidin-5-yl)-5-oxopyrrolidin-3-yl]-N-(2,2-difluoropropyl)-2-oxoacetamide]
< 1	< 1	O=C(NC1CC1)C(=O)[C@H]1CN(c2ccc(Cl)nn2)C(=O)[C@@H]1Cc1ccccc1 (racemic) [FP-62, Rac-2-[(3R,4R)-4-benzyl-1-(6-chloropyridazin-3-yl)-5-oxopyrrolidin-3-yl]-N-cyclopropyl-2-oxoacetamide]
< 1	< 1	Cn1cc(N2C[C@H](C(=O)C(=O)NCC(C)(F)F)[C@@H](Cc3ccccc3)C2=O)cn1 (racemic) [FP-76, Rac-2-[(3R,4R)-4-benzyl-1-(1-methyl-1H-pyrazol-4-yl)-5-oxopyrrolidin-3-yl]-N-(2,2-difluoropropyl)-2-oxoacetamide]
< 1	< 1	O=C(NCC(F)F)C(=O)[C@H]1CNC(=O)[C@@H]1Cc1ccccc1 (racemic) [FP-4, Rac-2-[(3R,4R)-4-benzyl-5-oxopyrrolidin-3-yl]-N-(2,2-difluoroethyl)-2-oxoacetamide]
1 to 10	< 1	CC(F)(F)CNC(=O)C(=O)[C@@H]1CN(c2cncnc2)C(=O)[C@H]1Cc1ccccc1 (single isomer, unassigned) [FP-96]
1 to 10	< 1	O=C(NC1CC1)C(=O)[C@H]1CN(Cc2ccncn2)C(=O)[C@@H]1Cc1ccccc1 (racemic) [FP-37, Rac-2-[(3R,4R)-4-benzyl-5-oxo-1-[(pyrimidin-4-yl)methyl]pyrrolidin-3-yl]-N-cyclopropyl-2-oxoacetamide]

The next lines start with the molecule.

Structure (SMILES)	EC50 [1] [µM]	IC50 (PLA2G16) [µM]
N#CCCNC(=O)C(=O)[C@H]1CNC(=O)[C@@H]1Cc1ccccc1 (racemic) [FP-6, Rac-2-[(3R,4R)-4-benzyl-5-oxopyrrolidin-3-yl]-N-(2-cyanoethyl)-2-oxoacetamide]	1 to 10	< 1
O=C(NC1CCCC1)C(=O)[C@H]1CNC(=O)[C@@H]1c1ccccc1 (racemic) [FP-79, Rac-N-cyclopentyl-2-oxo-2-[(3R,4S)-5-oxo-4-phenylpyrrolidin-3-yl]acetamide]	< 1	< 1
CC(C)ONC(=O)C(=O)[C@H]1CNC(=O)[C@@H]1Cc1ccc(F)cc1 (racemic) [FP-77, Rac-2-[(3R,4R)-4-[(4-fluorophenyl)methyl]-5-oxopyrrolidin-3-yl]-2-oxo-N-(propan-2-yloxy)acetamide]	1 to 10	< 1
CC(C)CNC(=O)C(=O)[C@H]1CNC(=O)[C@@H]1Cc1ccccn1 (racemic) [FP-80, Rac-N-(2-methylpropyl)-2-oxo-2-[(3R,4R)-5-oxo-4-[(pyridin-2-yl)methyl]pyrrolidin-3-yl]acetamide]	< 1	< 1
CC(F)(F)CNC(=O)C(=O)[C@H]1CNC(=O)[C@@H]1C1CCCCC1 (racemic) [FP-12, Rac-2-[(3R,4R)-4-cyclohexyl-5-oxopyrrolidin-3-yl]-N-(2,2-difluoropropyl)-2-oxoacetamide]	< 1	< 1
CCCNC(=O)C(=O)[C@H]1CNC(=O)[C@@H]1c1ccccc1 (racemic) [FP-18, Rac-2-oxo-2-[(3R,4S)-5-oxo-4-phenylpyrrolidin-3-yl]-N-propylacetamide]	1 to 10	< 1
O=C(NCC1CC(F)(F)C1)C(=O)[C@H]1CNC(=O)[C@@H]1c1ccccc1 (racemic) [FP-23, Rac-N-[(3,3-difluorocyclobutyl)methyl]-2-oxo-2-[(3R,4S)-5-oxo-4-phenylpyrrolidin-3-yl]acetamide]	< 1	< 1
O=C(NCC1CC1)C(=O)[C@H]1CNC(=O)[C@@H]1Cc1ccccc1 (single isomer, unassigned) [FP-81]	< 1	< 1
O=C(NCC1CC1)C(=O)[C@H]1CN(c2cncnc2)C(=O)[C@@H]1c1ccccc1 (racemic) [FP-64, Rac-N-(cyclopropylmethyl)-2-oxo-2-[(3R,4S)-5-oxo-4-phenyl-1-(pyrimidin-5-yl)pyrrolidin-3-yl]acetamide]	1 to 10	< 1
O=C(NCC(F)(F)F)C(=O)[C@H]1CNC(=O)[C@@H]1c1ccccc1 (racemic) [FP-22, Rac-2-oxo-2-[(3R,4S)-5-oxo-4-phenylpyrrolidin-3-yl]-N-(2,2,2-trifluoroethyl)acetamide]	1 to 10	< 1
CC(C)(C)NC(=O)C(=O)[C@H]1CNC(=O)[C@@H]1c1ccccc1 (racemic) [FP-17, Rac-N-tert-butyl-2-oxo-2-[(3R,4S)-5-oxo-4-phenylpyrrolidin-3-yl]acetamide]	< 1	< 1
CC(C)ONC(=O)C(=O)[C@H]1CNC(=O)[C@@H]1Cc1ccccc1 (racemic) [FP-8, Rac-2-[(3R,4R)-4-benzyl-5-oxopyrrolidin-3-yl]-2-oxo-N-(propan-2-yloxy)acetamide]	1 to 10	< 1
O=C(NC1CC1)C(=O)[C@H]1CN(Cc2ncccn2)C(=O)[C@@H]1Cc1ccccc1 (racemic) [FP-35, Rac-2-[(3R,4R)-4-benzyl-5-oxo-1-[(pyrimidin-2-yl)methyl]pyrrolidin-3-yl]-N-cyclopropyl-2-oxoacetamide]	1 to 10	< 1
CCNC(=O)C(=O)[C@H]1CN(CC2CCOCC2)C(=O)[C@@H]1Cc1ccccc1 (racemic) [FP-33, Rac-2-[(3R,4R)-4-benzyl-1-[(oxan-4-yl)methyl]-5-oxopyrrolidin-3-yl]-N-ethyl-2-oxoacetamide]	< 1	< 1
CCCCNC(=O)C(=O)[C@H]1CNC(=O)[C@@H]1c1ccccc1 (racemic) [FP-103, Rac-N-butyl-2-oxo-2-[(3R,4S)-5-oxo-4-phenylpyrrolidin-3-yl]acetamide]	< 1	< 1
